Data taken from US20250353873A1, “COMPOUNDS AND METHODS FOR MODULATING APOE EXPRESSION” (Ionis Pharmaceuticals, Inc., priority 2024, published 2025).
Strand notation (5' to 3'): a small letter for the sugar, then the base; units joined by * are phosphorothioate-linked, units joined directly phosphodiester-linked; [ ] holds rarer units or linkages, { } end groups; capitals alone tell only the bases. [ms] = mesyl phosphoramidate linkage; e = 2'-O-(2-methoxyethyl) (MOE); k = constrained ethyl (cEt); [5mC] = 5-methylcytosine; d = 2'-deoxy (DNA)

Experiments:
human APOE RNA [1] = experiment: Activity in APOE C57BL/6NTac-Apoeem7250 knock-in mice, single ICV bolus, 8 weeks (Example 11); type: in vivo; conditions: single ICV bolus 300 μg, 8 weeks post treatment, normalized to mouse Ppia
In short: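 Cortical and spinal cord human APOE RNA quantified by RT-qPCR 8 weeks after a single 300 μg ICV dose in knock-in mice, Ppia-normalized. Values are percent of levels in PBS-treated animals.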

human APOE RNA [2] = experiment: Activity in APOE C57BL/6NTac-Apoeem7250 knock-in mice, single ICV bolus, 4 weeks (Example 10); type: in vivo; conditions: single ICV bolus 300 μg, 4 weeks post treatment, normalized to mouse Ppia
In short: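 Human APOE RNA, quantified by real-time RT-PCR with RTS3073 and normalized to mouse Ppia, was read in cortical brain and spinal cord 4 weeks post dosing. Dosing was a single ICV bolus of 300 μg per knock-in mouse; values are % of PBS-treated animals.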

human APOE RNA [3] = experiment: Dose-dependent inhibition of human APOE RNA in HepG2 cells, electroporation, 50,000 cells per well, RT-PCR normalized to GAPDH (Example 4, Tables 8-10); type: cell-based; conditions: HepG2 cells, electroporation, Table 8; for APOE RNA (% UTC) 5 nM / APOE RNA (% UTC) 13 nM / APOE RNA (% UTC) 33 nM / APOE RNA (% UTC) 82 nM / APOE RNA (% UTC) 205 nM / APOE RNA (% UTC) 512 nM / IC50: 24-hour treatment; for APOE RNA (% UTC) 1,280 nM: 24-hour treatment, 1,280 nM; for APOE RNA (% UTC) 3,200 nM: 24-hour treatment, 3,200 nM; for APOE RNA (% UTC) 8,000 nM: 24-hour treatment, 8,000 nM; for APOE RNA (% UTC) 20,000 nM: 24-hour treatment, 20,000 nM; for IC50: reduction of human APOE RNA
In short: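 Readout is percent APOE RNA versus untreated controls, measured by RT-PCR (primer probe set RTS3073) and normalized to human GAPDH. Modified oligonucleotides were delivered by electroporation at varying doses into HepG2 cells plated at 50,000 per well.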

human APOE RNA [4] = experiment: Activity in APOE C57BL/6NTac-Apoeem7250 knock-in mice, single ICV bolus, 16 weeks (Example 12); type: in vivo; conditions: single ICV bolus 300 μg, 16 weeks post treatment, normalized to mouse Ppia
In short: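 A single 300 μg intracerebroventricular dose was given, with PBS-treated mice as reference; cortical and spinal cord tissue was taken 16 weeks later. RT-qPCR quantified human APOE RNA, Ppia-normalized, expressed relative to PBS animals (% control).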

human APOE RNA [5] = experiment: Activity in APOE C57BL/6NTac-Apoeem7250 knock-in mice, single ICV bolus, 20 weeks (Example 13); type: in vivo; conditions: single ICV bolus 300 μg, 20 weeks post treatment, normalized to mouse Ppia
In short: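 Cortical and spinal cord RNA was assayed by real-time RT-PCR for human APOE, normalized to mouse Ppia and reported as percent of PBS controls. Tissue was taken twenty weeks after one 300 μg intracerebroventricular bolus in APOE knock-in mice, 4 per group.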

| Substance | APOE RNA (% control) Cortex (human APOE RNA [1]) | APOE RNA (% control) Spinal Cord (human APOE RNA [1]) | APOE RNA (% control) Cortex (human APOE RNA [2]) | APOE RNA (% control) Spinal Cord (human APOE RNA [2]) | APOE RNA (% UTC) 5 nM (human APOE RNA [3]) | APOE RNA (% UTC) 13 nM (human APOE RNA [3]) | APOE RNA (% UTC) 33 nM (human APOE RNA [3]) | APOE RNA (% UTC) 82 nM (human APOE RNA [3]) | APOE RNA (% UTC) 205 nM (human APOE RNA [3]) | APOE RNA (% UTC) 512 nM (human APOE RNA [3]) | APOE RNA (% UTC) 1,280 nM (human APOE RNA [3]) | APOE RNA (% UTC) 3,200 nM (human APOE RNA [3]) | APOE RNA (% UTC) 8,000 nM (human APOE RNA [3]) | APOE RNA (% UTC) 20,000 nM (human APOE RNA [3]) | IC50 (human APOE RNA [3]) | APOE RNA (% control) Cortex (human APOE RNA [4]) | APOE RNA (% control) Spinal Cord (human APOE RNA [4]) | APOE RNA (% control) Cortex (human APOE RNA [5]) | APOE RNA (% control) Spinal Cord (human APOE RNA [5]) |
| --- | --- | --- | --- | --- | --- | --- | --- | --- | --- | --- | --- | --- | --- | --- | --- | --- | --- | --- | --- |
| 1778127: modified oligonucleotide complementary to human APOE RNA (eA*e[5mC]eTeTkGkG*dT*dG[ms]dA[ms]dA*dT*d[5mC]*dT*dT*dT*dA[ms]kTeT[ms]eA[ms]eA; antisense) [compound 1778127] | 28 % control | 14 % control | 32 % control | 53 % control | 98 % UTC | 88 % UTC | 85 % UTC | 82 % UTC | 55 % UTC | 31 % UTC | 30 % UTC | 16 % UTC | 14 % UTC | 4 % UTC | 310 nM | 48 % control | 25 % control | 57 % control | 43 % control |
| 1778129: modified oligonucleotide complementary to human APOE RNA (eA*e[5mC]eTeTeG*kG*dT*dG[ms]dA[ms]dA*dT*d[5mC]*dT*dT*dT*dA[ms]kT*kT*eA*eA; antisense) [compound 1778129] | 19 % control | 9 % control | 25 % control | 47 % control | 124 % UTC | 105 % UTC | 110 % UTC | 77 % UTC | 60 % UTC | 44 % UTC | 29 % UTC | 9 % UTC | 14 % UTC | 2 % UTC | 410 nM | 34 % control | 14 % control | 52 % control | 24 % control |
| 1785601: modified oligonucleotide complementary to human APOE RNA (k[5mC]*kT*kT*dG[ms]dG[ms]dT[ms]dG*dA[ms]dA[ms]dT*d[5mC]*dT*dT*dT*dA[ms]dT*kT*kA*dA[ms]kA; antisense) [compound 1785601] | 28 % control | 211 % control | 33 % control | 40 % control | 111 % UTC | 115 % UTC | 101 % UTC | 75 % UTC | 63 % UTC | 36 % UTC | 25 % UTC | 15 % UTC | 16 % UTC | 10 % UTC | 380 nM | 39 % control | 21 % control | 43 % control | 31 % control |
| 1785604: modified oligonucleotide complementary to human APOE RNA (k[5mC]*dT[ms]dT[ms]kG*dG[ms]kT*dG[ms]dA[ms]dA*dT*d[5mC]*dT*dT*dT*dA*dT*kT*kA*dA[ms]kA; antisense) [compound 1785604] | 28 % control | 35 % control | 39 % control | 55 % control | 92 % UTC | 108 % UTC | 89 % UTC | 86 % UTC | 69 % UTC | 47 % UTC | 44 % UTC | 47 % UTC | 13 % UTC | 7 % UTC | 870 nM | 41 % control | 27 % control | 55 % control | 47 % control |
